Measured values as given in patent US8575145B2, “Triazolopyridine compounds as PIM kinase inhibitors” (Array BioPharma Inc., priority 2008, dated 2013).

How the values were obtained:
[1] = biological target: GST-tagged recombinant full-length human PIM-2 (Homo sapiens (Human), UniProt Q9P1W9); experiment: PIM-2 Enzyme Assay; settings: read-out: PIM-2 IC50; 4 μM ATP, […] PIM-2
Description: The amount of radiolabeled product is then measured by liquid scintillation counting. The final buffer conditions were as follows: 20 mM K^+MOPS, pH 7.4, 10 mM MgCl2, 0.005% Tween-20, 1 mM DTT. […] Incubations were carried out for 60 min at 22° C. and quenched with 75 μL of 200 mM H3PO4, filtered through a Whatman P81 plate and washed (1×200 μL and 5×100 μL ) with 200 mM H3PO4. Liquid scintillation cocktail (50 μL ) was then added per well, and the plate was counted for 30 s/well using a TopCount NXT.
One-μL aliquots of these were then transferred to the assay mixtures above to give a final concentration of DMSO of 2%. […] For each plate, percent of control (POC) values were calculated for each well. IC50's were estimated from the POC's using a standard 4-parameter logistic model. The IC50 is defined as the concentration of inhibitor at which the POC equals 50 for the fitted curve.

[2] = biological target: recombinant rat PIM-3 (Rattus norvegicus (Rat), UniProt O70444); experiment: PIM-3 Enzyme Assay; settings: read-out: PIM-3 IC50; 30 μM ATP, 0.5 nM PIM-3
[3] = test system: K562 (Ph+chronic myelogenous leukemia); experiment: Cellular Proliferation Assay, cell line B; format: cell-based; settings: Homo sapiens; K562, 72 hours, CelltiterBlue; read-out: Cell Line B antiproliferative IC50
Description: (§1) The assay for determination of the antiproliferative activity of multiple Pim inhibitors in the JAK2-driven cell lines was conducted as follows. Cells were plated out to 96-well plates at an initial density of 10,000 cells/well in 95 pt. Compounds were prepared at […] in DMSO by conducting 3-fold serial dilutions to give a 10-point dosing curve having a high dose of 1000 μM. Aliquots (5 μt) of these dilutions were then transferred to the appropriate wells of the 96-well plates containing cells to yield a final DMSO concentration of 0.5%. The cells were then incubated with compound for 72 hours at 37° C., 5% CO2. CelltiterBlue reagent (Promega, Catalog #: G8080) was then added (20 μL/well) and incubated at 37° C., 5% CO2 for 1-8 hours depending on the cell line being analyzed. The plate was then quantified employing a fluorescence plate reader (Model: Gemini [Molecular Devices]; Settings: 560 nm (Ex)/590 nm (Em) 570 nm (cut-off) [CellTiter Blue Assay].
(§2) The values for each well were then converted to a percent of untreated control (POC). These POC values were then plotted as a function of compound concentration. A 4-parameter curve-fit analysis was performed for each compound dilution and an IC50 value was calculated from this curve.
(§3) Cell lines • A: PC3 (Androgen independent prostate cancer) • B: K562 (Ph+chronic myelogenous leukemia) • C: MV4-11 (Acute myelogenous leukemia) • D: BxPC3 (Pancreatic Cancer) • E: HepG2 (Hepatocellular Carcinoma) • F: BaF3 (Mouse pro-B-cell line) • G: BaF3 TEL-JAK2 (Mouse pro-B-cell transformed with TEL-JAK2 fusion) • H: BaF2 BCR-Ab1 (Mouse pro-B-cell transformed with BCR-Ab1 fusion)

[4] = test system: HepG2 (Hepatocellular Carcinoma); experiment: Cellular Proliferation Assay, cell line E; format: cell-based; settings: Homo sapiens; HepG2, 72 hours, CelltiterBlue; read-out: Cell Line E antiproliferative IC50
Description: as §1, §2, §3

[5] = test system: PC3 (Androgen independent prostate cancer); experiment: Cellular Proliferation Assay, cell line A; format: cell-based; settings: PC3, 72 hours, CelltiterBlue; read-out: Cell Line A antiproliferative IC50
Description: as §1, §2, §3

[6] = test system: BaF3 (Mouse pro-B-cell line); experiment: Cellular Proliferation Assay, cell line F; format: cell-based; settings: BaF3, 72 hours, CelltiterBlue, read-out: Cell Line F antiproliferative IC50
Description: as §1, §2, §3

[7] = test system: BaF2 BCR-Ab1 (Mouse pro-B-cell transformed with BCR-Ab1 fusion); experiment: Cellular Proliferation Assay, cell line H; format: cell-based; settings: BaF2 BCR-Ab1, 72 hours, CelltiterBlue, read-out: Cell Line H antiproliferative IC50
Description: as §1, §2, §3

[8] = test system: BaF3 TEL-JAK2 (Mouse pro-B-cell transformed with TEL-JAK2 fusion); experiment: Cellular Proliferation Assay, cell line G; format: cell-based; settings: BaF3 TEL-JAK2, 72 hours, CelltiterBlue, read-out: Cell Line G antiproliferative IC50
Description: as §1, §2, §3

[9] = test system: BxPC3 (Pancreatic Cancer); experiment: Cellular Proliferation Assay, cell line D; format: cell-based; settings: Homo sapiens, BXPC-3; BxPC3, 72 hours, CelltiterBlue; read-out: Cell Line D antiproliferative IC50
Description: as §1, §2, §3

[10] = biological target: PIM-1 (Homo sapiens (Human), UniProt P11309); experiment: PIM-1 Enzyme Assay; format: biochemical; settings: 35 μM ATP, 0.25 nM PIM-1
In short: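 Radiometric kinase assay in 20 mM K+MOPS pH 7.4, 10 mM MgCl2, 0.005% Tween-20, 1 mM DTT, 2% DMSO final; 60 min at 22° C, stopped with H3PO4, product captured on P81 filter and counted by scintillation. IC50 from 4-parameter logistic fit of percent of control.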

Chain of GST-tagged recombinant full-length human PIM-2 (Q9P1W9 whole entry): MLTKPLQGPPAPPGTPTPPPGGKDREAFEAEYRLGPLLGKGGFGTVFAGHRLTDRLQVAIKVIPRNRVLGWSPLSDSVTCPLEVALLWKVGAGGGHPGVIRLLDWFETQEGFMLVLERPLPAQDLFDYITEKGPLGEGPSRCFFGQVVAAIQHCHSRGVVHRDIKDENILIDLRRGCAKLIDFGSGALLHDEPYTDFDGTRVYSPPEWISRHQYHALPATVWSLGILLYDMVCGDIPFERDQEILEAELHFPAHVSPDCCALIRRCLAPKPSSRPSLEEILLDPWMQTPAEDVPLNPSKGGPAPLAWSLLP
Chain of PIM-1 (P11309 whole entry, species assumed): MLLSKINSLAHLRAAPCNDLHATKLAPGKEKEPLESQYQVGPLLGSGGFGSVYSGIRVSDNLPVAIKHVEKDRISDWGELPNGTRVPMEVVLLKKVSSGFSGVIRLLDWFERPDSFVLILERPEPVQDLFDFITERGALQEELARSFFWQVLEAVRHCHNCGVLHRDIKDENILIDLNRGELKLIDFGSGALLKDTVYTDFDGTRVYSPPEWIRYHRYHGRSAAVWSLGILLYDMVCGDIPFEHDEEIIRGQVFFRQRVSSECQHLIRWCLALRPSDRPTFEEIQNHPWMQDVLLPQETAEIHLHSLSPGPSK

| Compound | IC50 [1] [nM] | IC50 [2] [nM] | IC50 [3] [nM] | IC50 [4] [nM] | IC50 [5] [nM] | IC50 [6] [nM] | IC50 [7] [nM] | IC50 [8] [nM] | IC50 [9] [nM] | IC50 [10] [nM] |
| --- | --- | --- | --- | --- | --- | --- | --- | --- | --- | --- |
| N[C@H]1CC[C@H](Oc2cccc3ccc(-c4nnc5ccccn45)nc23)CC1 [Example 17, (trans)-4-(2-([1,2,4]Triazolo[4,3-a]pyridin-3-yl)quinolin-8-yloxy)cyclohexanamine] | 134 | 3 | < 10000 | < 10000 | < 2000 | < 2000 | < 2000 | < 2000 | < 10000 | – |
| c1cc(NC2CCNCC2)c2nc(-c3nnc4ccccn34)ccc2c1 [Example 1, 2-([1,2,4]Triazolo[4,3-a]pyridin-3-yl)-N-(piperidin-4-yl)quinolin-8-amine di-trifloroacetate] | 1110 | 4.4 | > 10000 | – | < 10000 | < 2000 | < 10000 | < 2000 | – | 1.6 |
